IC50 data for one compound are collected here from BindingDB's records for doi:10.1021/acs.jmedchem.6b00247 (Sanford Burnham Prebys Medical Discovery Institute, 2016).

The assay in a line: Antagonist activity against HIV-1 Vif in human CEM cells assessed as inhibition of viral infection.

SMILES strings stand for the structures.

Consider `COc1ccccc1NC(=O)c1ccccc1Sc1ccc([N+](=O)[O-])cc1`, for which the IC50 was determined as 4.5 µM.
